Assay results as given in patent US7538102B2, “Compounds for the treatment of Hepatitis C” (Bristol-Myers Squibb Company, priority 2007, dated 2009).

Legend:
HCV NS5B = biological target: T1, HCV NS5B (Hepatitis C virus genotype 1b, UniProt Q9WMX2); assay: HCV NS5B RdRp enzyme assay (standard or modified); assay type: biochemical; conditions: HCV NS5B RdRp genotype 1b; standard or modified enzyme assay not specified; read-out: IC50
T1 construct: The protein was expressed with an 18 amino acid C-terminal truncation to enhance the solubility; made in house; host or cells: E. coli BL21(DE3)
Method: HCV NS5B RdRp cloning, expression, and purification. The cDNA encoding the NS5B protein of HCV, genotype 1b, was cloned into the pET21a expression vector. The protein was expressed with an 18 amino acid C-terminal truncation to enhance the solubility. The E. coli competent cell line BL21(DE3) was used for expression of the protein. Cultures were grown at 37° C. for ˜4 hours until the cultures reached an optical density of 2.0 at 600 nm. The cultures were cooled to 20° C. and induced with 1 mM IPTG. Fresh ampicillin was added to a final concentration of 50 μg/ml and the cells were grown overnight at 20° C.
Cell pellets (3 L) were lysed for purification to yield 15-24 mgs of purified NS5B. The lysis buffer consisted of 20 mM Tris-HCl, pH 7.4, 500 mM NaCl, 0.5% triton X-100, 1 mM DTT, 1mM EDTA, 20% glycerol, 0.5 mg/ml lysozyme, 10 mM MgCl2, 15 ug/ml deoxyribonuclease I, and Complete TM protease inhibitor tablets (Roche). After addition of the lysis buffer, frozen cell pellets were resuspended using a tissue homogenizer. To reduce the viscosity of the sample, aliquots of the lysate were sonicated on ice using a microtip attached to a Branson sonicator. The sonicated lysate was centrifuged at 100,000×g for 1 hr at 4° C. and filtered through a 0.2 μm filter unit (Corning).
The protein was purified using two sequential chromatography steps: Heparin sepharose CL-6B and polyU sepharose 4B (Pharmacia). The chromatography buffers were identical to the lysis buffer but contained no lysozyme, deoxyribonuclease I, MgCl2 or protease inhibitor and the NaCl concentration of the buffer was adjusted according to the requirements for charging the protein onto the column. Each column was eluted with a NaCl gradient which varied in length from 5-50 column volumes depending on the column type. After the final chromatography step, the resulting purity of the enzyme is >90% based on SDS-PAGE analysis. The enzyme was aliquoted and stored at −80° C.
Standard HCV NS5B RdRp enzyme assay. HCV RdRp genotype 1b assays were run in a final volume of 60 μl in 96 well plates (Corning 3600). The assay buffer is composed of 20 mM Hepes, pH 7.5, 2.5 mM KCl, 2.5 mM MgCl2, 1 mM DTT, 1.6 U RNAse inhibitor (Promega N2515), 0.01 mg/ml BSA (Sigma B6917), and 2% glycerol. All compounds were serially diluted (3-fold) in DMSO and diluted further in water such that the final concentration of DMSO in the assay was 2%. HCV RdRp genotype 1b enzyme was used at a final concentration of 28 nM. A polyA template was used at 6 nM, and a biotinylated oligo-dT12 primer was used at 180 nM final concentration. Template was obtained commercially (Amersham 27-4110). Biotinylated primer was prepared by Sigma Genosys. 3H-UTP was used at 0.6 μCi (0.29 μM total UTP). Reactions were initiated by the addition of enzyme, incubated at 30° C. for 60 min, and stopped by adding 25 μl of 50 mM EDTA containing SPA beads (4 μg/pl, Amersham RPNQ 0007). Plates were read on a Packard Top Count NXT after >1 hr incubation at room temperature.
Modified HCV NS5B RdRp enzyme assay. A modified enzyme assay was performed essentially as described for the standard enzyme assay except for the following: The biotinylated oligo dT12 primer was precaptured on streptavidin-coated SPA beads by mixing primer and beads in assay buffer and incubating at room temperature for one hour. Unbound primer was removed after centrifugation. The primer-bound beads were resuspended in 20 mM Hepes buffer, pH 7.5 and used in the assay at final concentrations of 20 nM primer and 0.67 μg/μl beads. Order of addition in the assay: enzyme (1.75 nM) was added to diluted compound followed by the addition of a mixture of template (0.36 nM), 3H-UTP (0.6 μCi, 0.29 μM), and primer-bound beads, to initiate the reaction; concentrations given are final. Reactions were allowed to proceed for 4 hours at 30° C.
IC50 values for compounds were determined using seven different [I]. […]

HCV replicon = HCV replicon FRET / luciferase assay; assay type: cell-based; conditions: Hepatitis C virus; HCV replicon cells; 50% reduction in FRET or luciferase activity; read-out: EC50
Method: FRET Assay Preparation. The HCV FRET screening assay was performed in 96-well cell culture plates. The FRET peptide (Anaspec, Inc.) (Taliani et al., Anal. Biochem. 1996, 240, 60-67) contains a fluorescence donor, EDANS, near one end of the peptide and an acceptor, DABCYL, near the other end. The fluorescence of the peptide is quenched by […] resonance energy transfer (RET) between the donor and the acceptor, but as the NS3 protease cleaves the peptide the products are released from RET quenching and the fluorescence of the donor becomes apparent. The assay reagent was made as follows: 5× cell Luciferase cell culture lysis reagent from Promega (#E153A) diluted to 1× with dH2O, NaCl added to 150 mM final, the FRET peptide diluted to 20 μM final from a 2 mM stock.
To prepare plates, HCV replicon cells, with or without a Renilla luciferase reporter gene, were trypsinized and plated in a 96-well plate with titrated test compounds added in columns 3 through 12; columns 1 and 2 contained a control compound (HCV control inhibitor), and the bottom row contained cells with DMSO only. The plates were then placed in a CO2 incubator at 37° C.
Assays. Subsequent to addition of the test compounds described above (FRET Assay Preparation), at various times the plate was removed and Alamar blue solution (Trek Diagnostics, #00-100) was added to measure cellular toxicity. After reading in a Cytoflour 4000 instrument (PE Biosystems), plates were rinsed with PBS and then used for FRET assay by the addition of 30 ul of the FRET peptide assay reagent described above (FRET Assay Preparation) per well. The plate was then placed into the Cytoflour 4000 instrument which had been set to 340 excite/490 emission, automatic mode for up to 20 cycles and the plate read in a kinetic mode. Typically, the signal to noise using an endpoint analysis after the reads was at least three-fold. Alternatively, after Alamar blue reading, plates were rinsed with PBS, then used for luciferase assay using the Promega Dual-Glo Luciferase Assay System or the Promega EnduRen Live Cell Substrate assay.
Compound analysis was performed by quantification of the relative HCV replicon inhibition and the relative cytotoxicity values. To calculate cytoxicity values, the average Alamar Blue fluorescence signals from the control wells were set as 100% non-toxic. The individual signals in each of the compound test wells were then divided by the average control signal and multiplied by 100% to determine […]. To calculate the HCV replicon inhibition values, an average background value was obtained from the two wells containing the highest amount of HCV control inhibitor at the end of the assay period. These numbers were similar to those obtained from naive Huh-7 cells. The background numbers were then subtracted from the average signal obtained from the control wells and this number was used as 100% activity. The individual signals in each of the compound test wells were then divided by the averaged control values after background subtraction and multiplied by 100% to determine percent activity. EC50 values were calculated as the concentration which caused a 50% reduction in FRET or luciferase activity. The two numbers generated for the compound plate, percent cytoxicity and percent activity, were used to determine compounds of interest for further analysis.

T1 sequence (Q9WMX2 2420-2992): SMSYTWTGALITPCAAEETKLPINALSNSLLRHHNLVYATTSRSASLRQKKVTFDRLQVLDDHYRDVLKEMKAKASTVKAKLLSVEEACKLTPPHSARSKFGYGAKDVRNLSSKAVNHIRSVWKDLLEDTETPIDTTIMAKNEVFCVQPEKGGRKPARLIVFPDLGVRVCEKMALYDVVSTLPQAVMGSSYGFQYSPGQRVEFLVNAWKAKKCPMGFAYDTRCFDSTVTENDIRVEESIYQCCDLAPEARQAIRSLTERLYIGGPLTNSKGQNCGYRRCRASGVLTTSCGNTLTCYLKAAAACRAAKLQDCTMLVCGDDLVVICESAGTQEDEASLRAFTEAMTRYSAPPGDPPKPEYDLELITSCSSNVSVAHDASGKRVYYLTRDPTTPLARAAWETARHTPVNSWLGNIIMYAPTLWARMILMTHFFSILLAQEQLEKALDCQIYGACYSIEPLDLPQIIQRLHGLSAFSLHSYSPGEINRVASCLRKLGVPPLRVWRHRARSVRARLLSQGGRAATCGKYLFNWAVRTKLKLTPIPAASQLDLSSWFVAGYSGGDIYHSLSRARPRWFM

COc1ccc2c(c1)C1CC1(C(=O)N1CCCN(Cc3ccccc3)CC1)Cn1c-2c(C2CCCCC2)c2ccc(C(=O)NS(=O)(=O)N(C)C)cc21 (stereo not drawn)
IC50 (HCV NS5B): 0.003 to 1 µM
EC50 (HCV replicon): 0.003 to 1 µM

COc1ccc2c(c1)C1CC1(C(=O)N1CCCN(C(C)=O)CC1)Cn1c-2c(C2CCCCC2)c2ccc(C(=O)NS(=O)(=O)N(C)C)cc21 (stereo not drawn)
IC50 (HCV NS5B): 0.003 to 1 µM
EC50 (HCV replicon): 0.003 to 1 µM

COc1ccc2c(c1)C1CC1(C(=O)N1CCCN(C(=O)OC(C)(C)C)CC1)Cn1c-2c(C2CCCCC2)c2ccc(C(=O)NS(C)(=O)=O)cc21 (stereo not drawn)
IC50 (HCV NS5B): 0.003 to 1 µM
EC50 (HCV replicon): 0.003 to 1 µM

COc1ccc2c(c1)C1CC1(C(=O)O[C@@H]1C[C@H](C)CC[C@H]1C(C)C)Cn1c-2c(C2CCCCC2)c2ccc(C(=O)NS(=O)(=O)N(C)C)cc21 (stereo partly drawn)
IC50 (HCV NS5B): 0.003 to 1 µM
EC50 (HCV replicon): > 1 µM

COc1ccc2c(c1)C1CC1(C(=O)N1CCN(C(=O)OC(C)(C)C)C[C@H]1c1ccccc1)Cn1c-2c(C2CCCCC2)c2ccc(C(=O)NS(C)(=O)=O)cc21 (stereo partly drawn)
IC50 (HCV NS5B): 0.003 to 1 µM
EC50 (HCV replicon): 0.003 to 1 µM

COc1ccc(C2CN(C(=O)C34CC3c3cc(OC)ccc3-c3c(C5CCCCC5)c5ccc(C(=O)NS(=O)(=O)N(C)C)cc5n3C4)CCN2)cc1 (stereo not drawn)
IC50 (HCV NS5B): 0.003 to 1 µM
EC50 (HCV replicon): 0.003 to 1 µM

C=CCN1CCN(C(=O)C23CC2c2cc(OC)ccc2-c2c(C4CCCCC4)c4ccc(C(=O)NS(=O)(=O)C(C)C)cc4n2C3)CC1 (stereo not drawn)
IC50 (HCV NS5B): 0.003 to 1 µM
EC50 (HCV replicon): 0.003 to 1 µM

COc1ccc2c(c1)C1CC1(C(=O)N(C)CC1CCCN1C)Cn1c-2c(C2CCCCC2)c2ccc(C(=O)NS(=O)(=O)N(C)C)cc21 (stereo not drawn)
IC50 (HCV NS5B): 0.003 to 1 µM
EC50 (HCV replicon): 0.003 to 1 µM

COc1ccc2c(c1)C1CC1(C(=O)N(C)C(CN(C)C)c1ccccc1)Cn1c-2c(C2CCCCC2)c2ccc(C(=O)NS(=O)(=O)N(C)C)cc21 (stereo not drawn)
IC50 (HCV NS5B): 0.003 to 1 µM
EC50 (HCV replicon): 0.003 to 1 µM

COc1ccc2c(c1)C1CC1(C(=O)N1CCNC(c3cccc(Cl)c3)C1)Cn1c-2c(C2CCCCC2)c2ccc(C(=O)NS(=O)(=O)N(C)C)cc21 (stereo not drawn)
IC50 (HCV NS5B): 0.003 to 1 µM
EC50 (HCV replicon): 0.003 to 1 µM

COc1ccc2c(c1)C1CC1(C(=O)N1CCN(C)C[C@@H]1c1ccccc1)Cn1c-2c(C2CCCCC2)c2ccc(C(=O)NS(=O)(=O)C(C)C)cc21 (stereo partly drawn)
IC50 (HCV NS5B): 0.003 to 1 µM
EC50 (HCV replicon): 0.003 to 1 µM

COc1ccc2c(c1)C1CC1(C(=O)N1CCN(C)CC1c1ccccc1)Cn1c-2c(C2CCCCC2)c2ccc(C(=O)NS(=O)(=O)N3CCC3)cc21 (stereo not drawn)
IC50 (HCV NS5B): 0.003 to 1 µM
EC50 (HCV replicon): 0.003 to 1 µM
